From paper PMC10501326, “A Phase I Study of the Pan-Notch Inhibitor CB-103 for Patients with Advanced Adenoid Cystic Carcinoma and Other Tumors” (Cancer Research Communications, 2023)

What was measured:
[1] = tested on: NOTCH-mutated advanced ACC; conditions: 77 patients, cited from earlier work
[2] = tested on: myeloma cell lines; parameters: method as in PMID 21159606; conditions: cited from earlier work
[3] = advanced ACC population; cited from earlier work
[4] = Phase I/II safety and tolerability: DLTs and treatment-related adverse events (CTCAE v4.03); format: in vivo; conditions: added to CB-103; one patient
Text: The study was an open-label, nonrandomized, phase I/II dose-escalation study with planned expansion cohorts. […] Part B was a potential expansion phase at the MTD/RP2D to determine preliminary evidence of antitumor activity and to confirm safety among patients stratified by preselected cancer indications.
Part A was based on a two-parameter Bayesian logistic regression model (BLRM) to investigate safety and tolerability of sequentially enrolled dose cohorts of 3–6 patients. The first 2 participants of each cohort were enrolled in a staggered approach with at least 1 day apart between first dosing.
(§1) 12-lead electrocardiograms and Holter safety monitoring with periodic cardiac imaging was employed. Efficacy assessments used RECIST v1.1 applied to CT/MRI scans performed at screening and every 8 weeks; or evaluated complete remission with complete hematologic recovery by National Comprehensive Cancer Network guideline criteria for T-ALL/T-LBL. Adherence to study drug administration was evaluated using both patient diaries and capsule counts.
Secondary endpoints included assessment of clinical benefit rate [CBR; defined as achieving complete and/or partial response and/or stable disease (SD) at prespecified benchmarks], duration of response, progression-free survival (PFS) and overall survival (OS), and plasma pharmacokinetics.
The SS was the primary population for all safety and efficacy analyses, except for determination of dose-DLT relationship.
Under this model, and accounting for dropouts and some additional patients enrolled to each cohort, approximately 55 patients were anticipated to enroll in dose escalation and approximately 45 patients in the confirmatory phase. […] All statistical analyses were analyzed using SAS v9.4 software.

[5] = tested on: advanced solid tumors, adenoid cystic carcinoma (ACC); experiment: Antitumor efficacy and survival (RECIST v1.1 response, CBR, PFS, OS); format: in vivo, human
Text: The study enrolled adults with histologically confirmed, locally advanced and/or metastatic solid tumors who had progressed on at least one line of prior systemic therapy (except for ACC) and relapsed/refractory T-ALL/LBL for whom no standard therapy was available. In dose escalation, participants with solid tumors with known or frequent Notch pathway–activating mutations were eligible (breast cancer, gastrointestinal tumors, hepatocellular carcinoma, osteosarcoma, malignant glomus tumor, and ACC), while the confirmatory cohort planned to enroll participants with selected tumor types (including T-ALL/LBL) and confirmed Notch pathway activation. Key eligibility criteria included patients ≥18 years of age with evaluable disease, Eastern Cooperative Oncology Group (ECOG) performance status 0–1, able to swallow capsules, and adequate organ function. Participants were excluded if they had clinically significant cardiac disease or thromboembolic events within the preceding 6 months, and drugs prolonging the QTc were avoided. A complete list of eligibility criteria is outlined in the Supplementary Materials and Methods.
as §1, with “Safety was assessed via monitoring of DLTs during the first treatment cycle, and of AEs, physical exam, and clinical lab results (hematology, coagulation, blood chemistry, urinalysis, and cardiac markers) throughout the study (Supplementary Table S1). 12-lead” for “12-lead”
The primary endpoint for dose escalation was the number of patients experiencing DLT during the first 28-day cycle of CB-103 and for the confirmatory phase, the incidence rate, severity, and relationship of AEs to CB-103. Secondary endpoints included assessment of clinical benefit rate [CBR; defined as achieving complete and/or partial response and/or stable disease (SD) at prespecified benchmarks], duration of response, progression-free survival (PFS) and overall survival (OS), and plasma pharmacokinetics.
The objective of the BLRM design ([10]) was to determine the MTD defined as the highest dose with less than 25% risk of the true DLT rate being above 33%. The MTD was considered reached if one of the following criteria was fulfilled: (i) if the posterior probability of the true DLT rate in the target interval (16%–33%) of the MTD was >50%, and (ii) at least 6 patients were treated at the MTD. Under this model, and accounting for dropouts and some additional patients enrolled to each cohort, approximately 55 patients were anticipated to enroll in dose escalation and approximately 45 patients in the confirmatory phase. Data were reported using 95% confidence intervals (CI) and survival endpoints (PFS, OS) are reported from the time of first treatment to the first of progression or death summarized by Kaplan–Meier estimates. All statistical analyses were analyzed using SAS v9.4 software.

## CN1C(=O)[C@@H](NC(=O)[C@H](CCC(F)(F)F)[C@H](CCC(F)(F)F)C(N)=O)N=C(c2ccccc2)c2ccccc21 [AL101]
[1]; benchmark not reported
  Disease control rate: 69%
[1]
  Partial response rate: 12%
  Patients exhibiting SD: 57%

## CN(C)CC[C@H](CSc1ccccc1)Nc1ccc(S(=O)(=O)NC(=O)c2ccc(N3CCN(Cc4ccccc4-c4ccc(Cl)cc4)CC3)cc2)cc1[N+](=O)[O-] [ABT-737]
[2]
  Effect of combining with a GSI: synergism

## CNC(=O)c1ccccc1Sc1ccc2c(/C=C/c3ccccn3)n[nH]c2c1 [axitinib]
[3]
  Discontinuation rates for toxicity: ≥ 20%

## CC1(C)CCC(CN2CCN(c3ccc(C(=O)NS(=O)(=O)c4ccc(NCC5CCOCC5)c([N+](=O)[O-])c4)c(Oc4cnc5[nH]ccc5c4)c3)CC2)=C(c2ccc(Cl)cc2)C1 [Venetoclax, reference compound]
[4]
  Tolerance in combination: good tolerance
[5]; 1 patient with NOTCH1-activating metastatic ACC and tumor BCL2 overexpression
  Effect of off-label addition to CB-103 after first progression: additional tumor growth stabilization
[5]; off-label, added to CB-103 upon signs of disease progression, one patient, NOTCH1-activated metastatic ACC, BCL2 overexpression
  Further disease stabilization, additional time: 3.5 months
